From patent US6339096B1, “Urethanes derived from azacycloalkanes, the thio and dithio analogues thereof and their use as cholesterol biosynthesis inhibitors” (Boehringer Ingelheim Pharma KG, priority 1998, dated 2002) come the findings set out here.

pIC50: −log10 of the molar value.

For data set [1], the target named is T1, 2,3-epoxysqualene-lanosterol-cyclase (Rattus norvegicus, UniProt P48450).
T1 construct: The quantity of 2,3-epoxysqualene formed therefore serves as a direct measurement of the potency on the animal as a whole; from tissue; host or cells: living rat; 2,3-epoxysqualene measured in the liver
T1 sequence (P48450 1-733): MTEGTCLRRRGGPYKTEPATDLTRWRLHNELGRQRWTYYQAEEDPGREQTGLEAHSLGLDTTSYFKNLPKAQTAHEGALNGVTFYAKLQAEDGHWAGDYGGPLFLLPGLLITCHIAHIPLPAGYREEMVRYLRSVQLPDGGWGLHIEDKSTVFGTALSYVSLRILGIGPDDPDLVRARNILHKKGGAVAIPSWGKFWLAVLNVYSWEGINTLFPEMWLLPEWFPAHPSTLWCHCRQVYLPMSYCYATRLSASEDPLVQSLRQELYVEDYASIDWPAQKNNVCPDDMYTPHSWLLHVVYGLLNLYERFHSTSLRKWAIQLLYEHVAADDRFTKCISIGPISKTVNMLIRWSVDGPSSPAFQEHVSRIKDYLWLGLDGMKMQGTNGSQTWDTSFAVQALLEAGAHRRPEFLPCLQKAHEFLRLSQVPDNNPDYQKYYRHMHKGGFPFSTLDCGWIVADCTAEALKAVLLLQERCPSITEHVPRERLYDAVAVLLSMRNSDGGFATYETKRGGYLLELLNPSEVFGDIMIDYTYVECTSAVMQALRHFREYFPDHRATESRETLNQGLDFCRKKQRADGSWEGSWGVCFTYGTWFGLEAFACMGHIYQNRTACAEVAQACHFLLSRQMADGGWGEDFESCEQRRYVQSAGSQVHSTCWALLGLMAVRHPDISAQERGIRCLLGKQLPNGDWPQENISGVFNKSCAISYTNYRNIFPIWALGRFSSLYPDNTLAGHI
As to the kind of experiment: In-vivo activity in the rat after oral administration: 2,3-epoxysqualene level in the liver. The procedure: II. Measuring the In-vivo Activity in the Rat after Oral Administration
Inhibiting the enzyme 2,3-epoxysqualene-lanosterol-cyclase causes an increase in the 2,3-epoxisqualene levels in the liver and plasma. The quantity of 2,3-epoxysqualene formed therefore serves as a direct measurement of the potency on the animal as a whole. The amounts were determined using the method described in J. Lipid. Res. 38, 564-575, [1997] after t=3 or 8 hours after administration of the substance in concentrations of c=0.01, 0.03, 0.1, 0.3 and 1.0 mg/kg. Table 3 which follows gives the results obtained for the abovementioned substances A, B, C, D, E, G, H, I and K by way of example.
In the control animals there were no measurable 2,3-epoxisqualene levels under these conditions.

Data set [2] has as its system normolipaemic golden hamster. In words: Lipid reduction in the normolipaemic golden hamster. It counts as in vivo. Conditions: dose 54.2 mg/kg/day, compared with control group. The method, then:
III. Lipid Reduction in the Normolipaemic Golden Hamster This was determined using the method described in J. Lipid. Res. 38, 564-575, (1997). At the end of the experiment the total cholesterol, β-lipoprotein-cholesterol and HDL-cholesterol were determined and compared with the values of a control group which were fed without any test substance. The lipid-lowering activity of the abovementioned compound H was tested.

The test system of data set [3] is ^14C-acetate incorporation into the steroids which can be precipitated with digitonin. As to the kind of experiment: Inhibition of 14C-acetate incorporation into the steroids which can be precipitated with digitonin. It counts as cell-based. The procedure: I. Measuring the Inhibition of ^14C-acetate Incorporation into the Steroids which can be Precipitated with Digitonin
The inhibitory effect was investigated using the method described in J. Lipid. Res. 37, 148-157 [1996] at test concentrations of 10^−8 and 10^−9 mol/l.
The IC50 values of compounds H, I, K and M were determined.

Regarding `Cc1ccc(OC(=O)N2CCC(Cc3ccc(CN(C)C)cc3)CC2)cc1.Cl` [(K), 4-[4-(dimethylaminomethyl)benzyl]-N-(4-methylphenoxy)carbonylpiperidine-hydrochloride], the “2,3-epoxysqualene concentration in the liver (rat)” value in data set [1] (c=0.1 mg/kg, t=3 h) was found to be 0.4 µg/g; in data set [1] (c=0.1 mg/kg, t=8 h), 0.4 µg/g; in data set [1] (c=1.0 mg/kg, t=3 h) it was 24.0 µg/g; in data set [1] (c=1.0 mg/kg, t=8 h), 5.5 µg/g. Moreover, the HDL-cholesterol in data set [2] was determined as 2.3%. Further, the Total cholesterol in data set [2] was −6.8%. Besides, the β-Lipoprotein-cholesterol in data set [2] is listed as −21.2%. In data set [3], the pIC50 (commonly the IC50 on a negative log10 scale, so that one unit is a factor of ten) is 8.85. Moreover, in data set [3] (test concentration 10^−8 mol/l, read-out: percentage by which the compound inhibits the 14C-acetate incorporation), the inhibition at 0.01 µM was found to be 82%. Besides, the inhibition at 0.001 µM in data set [3] (test concentration 10^−9 mol/l, read-out: percentage by which the compound inhibits the 14C-acetate incorporation) worked out at 49%.
For the compound `CN(C)Cc1ccc(SC2CCN(C(=O)Oc3ccccc3)CC2)cc1.Cl`, the melting point (in general, the temperature of the solid-liquid transition) is 161 °C.
